These substances were tested on peripheral blood monocytes (assay: Comparison of stem cell-inducing activities of various gangliosides (viable cells, CellTiter-Glo)). Conditions: gangliosides 100 μg/ml, rhM-CSF 25 ng/ml, second week of culture.
Type: cell-based, human
Method: More specifically, gangliosides were added to a culture medium at a final concentration of 100 μg/ml, and peripheral blood monocytes were cultured.
rhM-CSF was added thereto at a final concentration of 25 ng/ml. Then, the number of viable cells in the second week of culture was quantified as luciferase activity using CellTiter-Glo (Promega).

Substance | stem cell-inducing activity (number of viable cells as luciferase activity, FIG. 3)
aNeu5Ac(2-3)bDGalp(1-3)bDGalNAc(1-4)[aNeu5Ac(2-3)]bDGalp(1-4)bDGlcp(1-1)Cer [GD1a] | equally-strong stem cell-inducing activities
aNeu5Ac(2-3)bDGalp(1-3)bDGalNAc(1-4)[aNeu5Ac(2-8)aNeu5Ac(2-3)]bDGalp(1-4)bDGlcp(1-1)Cer [GT1b] | equally-strong stem cell-inducing activities
bDGalp(1-3)bDGalNAc[aNeu5Ac(2-3)]bDGalp(1-4)bDGlcp(1-1)Cer [GM1] | equally-strong stem cell-inducing activities
